Measured values: patent publication US4169096A, “Antibiotic compounds” (priority 1977, dated 1979)
Values after ≈ are worked out from the molar mass of the structure shown.

Tests used:
[1] = system: Escherichia coli Juhl A15119; assay: MIC, serial two-fold agar dilution, aerobic bacteria; assay type: cell-based; details: JUHLA15119
[2] = system: Klebsiella pneumoniae A9678; assay: as above; assay type: cell-based; details: Nutrient agar (Eiken), read-out: MIC
[3] = system: Serratia marcescens A20019; assay: as above; assay type: cell-based; details: Nutrient agar (Eiken), read-out: MIC
[4] = system: Pseudomonas aeruginosa A9843; assay: as above; assay type: cell-based; details: test medium not given
Proteus mirabilis A9554 = assay: as above; assay type: cell-based; details: Nutrient agar (Eiken)
Proteus morganii A9553 = assay: as above; assay type: cell-based; details: Morganella morganii, Nutrient agar (Eiken)
[5] = system: Staphylococcus aureus 209P; assay: as above; assay type: cell-based; details: Nutrient agar (Eiken)
[6] = system: Staphylococcus aereus Smith; assay: as above; assay type: cell-based
Sarcina lutea PCI-1001 = assay: as above; assay type: cell-based; details: Micrococcus luteus, PCI1001; Nutrient agar (Eiken); read-out: MIC
[7] = system: Bacillus cereus ATCC 10702 A; assay: as above; assay type: cell-based; details: ATCC10702
[8] = system: Streptococcus pyogenes A9604; assay: as above; assay type: cell-based; details: GC medium (Eiken)
[9] = system: Streptococcus pyogenes A20201; assay: as above; assay type: cell-based; details: GC medium (Eiken)
[10] = system: Streptococcus viridans A21354; assay: as above; assay type: cell-based; details: GC medium (Eiken)
[11] = system: Diplococcus pneumoniae A9585; assay: as above; assay type: cell-based; details: Streptococcus pneumoniae, GC medium (Eiken)
[12] = system: Neisseria gonorrhoeae A20154; assay: as above; assay type: cell-based; details: GC medium (Eiken)
[13] = system: Hemophilus influenzae A9832; assay: as above; assay type: cell-based; details: Haemophilus influenzae, GC medium (Eiken)
B. fragilis A20928-1 [14] = assay: Inoculum size effect on MIC, GAM agar; assay type: cell-based; details: Bacteroides fragilis, A209281; inoculum size 1.2 × 10^6 cell/ml
B. fragilis A20928-1 [15] = assay: Inoculum size effect on MIC, GAM broth; assay type: cell-based; details: Bacteroides fragilis
B. fragilis A20928-1 [16] = assay: Bactericidal activity (MIC & MBC); assay type: cell-based; details: Bacteroides fragilis, A209281, inoculum size 2.8 × 10^6 cell/ml
C. perfringens A9635 [17] = assay: microbe, parasite or virus in culture; assay type: cell-based; details: Clostridium perfringens
S. pyogenes A20201 [18] = assay: Bactericidal activity (MIC & MBC); assay type: cell-based; details: Streptococcus pyogenes, A20201, 18 h
C. perfringens A9635 [19] = assay: animal or person; assay type: in vivo, mice
S. pyogenes A20201 [20] = assay: Systemic infection with S. pyogenes in mice; assay type: in vivo; details: just before challenge, determined after 5 days
Solubility = assay type: physicochemical
[21] = pKa' by titration in aqueous ethanol; assay type: physicochemical; details: 50% aqueous ethanol
aerobic organisms = assay: Antibacterial activity against aerobic bacteria (in words); assay type: cell-based; details: Bacillus species, streptococci, Neisseria meningtidis, N. gonorrhoeae, Hemophilus influenzae
[22] = system: aerobic and anaerobic bacteria; assay: Antibacterial activity and spectrum (in words); assay type: cell-based
[23] = system: two anaerobic organisms (B. fragilis and C. perfringens); assay type: cell-based; details: broth dilution method
[24] = system: two anaerobic and one aerobic organisms; assay: Bactericidal potential (in words); assay type: cell-based
[25] = system: C. perfringens or S. pyrogenes; assay type: in vivo, mice; details: oral
[26] = system: Bacteroides fragilis A20930; assay: microbe, parasite or virus in culture
[27] = system: Bacteroides fragilis A20932; assay: microbe, parasite or virus in culture
[28] = system: Bacteroides fragilis A20935; assay: microbe, parasite or virus in culture
[29] = system: Sphaerophorus necrophorus A15202; assay: microbe, parasite or virus in culture; details: Fusobacterium necrophorum
[30] = system: Sphaerophorus pseudonecrophorus A20013; assay: microbe, parasite or virus in culture; details: Fusobacterium necrophorum
[31] = system: Fusobacterium mortiferum ATCC 9817; assay: microbe, parasite or virus in culture; details: ATCC9817
[32] = system: Acidoaminococcus fermentans ATCC 25085; assay: microbe, parasite or virus in culture
[33] = system: Veillonella parvula ATCC 17745; assay: microbe, parasite or virus in culture; details: ATCC17745
[34] = system: Peptocuccus prevotii ATCC 9321; assay: microbe, parasite or virus in culture
[35] = system: Peptococcus aerogenes ATCC 14963; assay: microbe, parasite or virus in culture; details: Peptoniphilus asaccharolyticus, ATCC14963
[36] = system: Escherichia coli K-12 A9632; assay: MIC, serial two-fold agar dilution, aerobic bacteria; details: K12A9632

SMILES: COC(=O)C1C(C)OC2(C)CC(=O)C3OC12OC(C(C)/C=C(C)/C=C/C(=O)C1=C(O)CN(C)C1=O)C3C (stereo not shown) [Bu-2313A]
- MIC [1]: > 100 µg/mL
- MIC [2]: > 100 µg/mL
- MIC [3]: > 100 µg/mL
- MIC [4]: > 100 µg/mL
- MIC (Proteus mirabilis A9554): > 100 µg/mL
- MIC (Proteus morganii A9553): > 100 µg/mL
- MIC [5]: 25 µg/mL (≈ 48.3 µM)
- MIC [6]: 12.5 µg/mL (≈ 24.2 µM)
- MIC (Sarcina lutea PCI-1001): 25 µg/mL (≈ 48.3 µM)
- MIC [7]: 0.8 µg/mL (≈ 1.55 µM)
- MIC [8]: 0.8 µg/mL (≈ 1.55 µM)
- MIC [9]: 0.8 µg/mL (≈ 1.55 µM)
- MIC [10]: 0.8 µg/mL (≈ 1.55 µM)
- MIC [11]: 0.8 µg/mL (≈ 1.55 µM)
- MIC [12]: 0.8 µg/mL (≈ 1.55 µM)
- MIC [13]: 0.8 µg/mL (≈ 1.55 µM)
- MIC (B. fragilis A20928-1 [14]): 0.1 µg/mL (≈ 0.193 µM)
- MIC (B. fragilis A20928-1 [15]; A209281, inoculum size […] 10^7 cell/ml, read-out: MIC in GAM broth): 0.8 µg/mL (≈ 1.55 µM)
- MIC (B. fragilis A20928-1 [15]; A209281, read-out: MIC in GAM broth, inoculum size […] 10^6 cell/ml): 0.06 µg/mL (≈ 0.116 µM)
- MIC (B. fragilis A20928-1 [16]; broth): 0.03 µg/mL (≈ 0.058 µM)
- MBC (B. fragilis A20928-1 [16]; growth of less than 100 colonies per plate, 18 hours at 37° C.): > 0.8 µg/mL
- MIC (C. perfringens A9635 [17]; A9635): 0.1 µg/mL (≈ 0.193 µM)
- MBC (C. perfringens A9635 [17]; A9635, 18 h): 12.5 µg/mL (≈ 24.2 µM)
- MBC (S. pyogenes A20201 [18]): 12.5 µg/mL (≈ 24.2 µM)
- ED50 (C. perfringens A9635 [19]; Clostridium perfringens, A9635, in Mus musculus, sc, 120 h, read-out: PD50): 6.25 mg/kg
- PD50 (C. perfringens A9635 [19]; po, just before challenge, determined after 5 days, NA: no activity): NA at 50
- ED50 (S. pyogenes A20201 [20]; Streptococcus pyogenes, A20201, 120 h, sc, read-out: PD50): 7.6 mg/kg
- PD50 (S. pyogenes A20201 [20]; po, NA: no activity): NA at 25
- solubility (Solubility; hexane and alkaline water): slightly soluble
- solubility (Solubility; most organic solvents such as lower alcohols, ethyl acetate, chloroform and benzene): readily soluble
- solubility (Solubility; water): practically insoluble
- pKa [21]: 5.2
- susceptibility of aerobic strains (aerobic organisms): susceptible
- antibacterial activity [22]: exhibit antibacterial activity against a variety of anaerobic bacteria and some aerobic bacteria
- comparative activity and antibacterial spectrum ([22]; in vitro): very similar to those of tirandamycin
- influence of inoculum size on MIC [23]: greatly affected by inoculum size
- antibacterial action [24]: bacteriostatic rather than bactericidal
- activity by the oral route [25]: inactive by the oral route
- MIC [26]: 0.2 µg/mL (≈ 0.386 µM)
- MIC [27]: 0.2 µg/mL (≈ 0.386 µM)
- MIC [28]: 0.2 µg/mL (≈ 0.386 µM)
- MIC [29]: 0.2 µg/mL (≈ 0.386 µM)
- MIC [30]: 0.2 µg/mL (≈ 0.386 µM)
- MIC [31]: 0.2 µg/mL (≈ 0.386 µM)
- MIC [32]: 0.2 µg/mL (≈ 0.386 µM)
- MIC [33]: 0.2 µg/mL (≈ 0.386 µM)
- MIC [34]: 0.2 µg/mL (≈ 0.386 µM)
- MIC [35]: 0.2 µg/mL (≈ 0.386 µM)
- MIC [36]: > 100 µg/mL
